The target of one experiment is human NK1 receptor (Homo sapiens, UniProt P25103). Description: NK1 receptor binding, [3H]substance P displacement, CHO cell membranes.
For experiment [1], the target named is T1, Recombinant human NK3 (hNK3) receptor (Homo sapiens, UniProt P29371).
T1 construct: expressed in transfected cells
T1 sequence (P29371 1-465): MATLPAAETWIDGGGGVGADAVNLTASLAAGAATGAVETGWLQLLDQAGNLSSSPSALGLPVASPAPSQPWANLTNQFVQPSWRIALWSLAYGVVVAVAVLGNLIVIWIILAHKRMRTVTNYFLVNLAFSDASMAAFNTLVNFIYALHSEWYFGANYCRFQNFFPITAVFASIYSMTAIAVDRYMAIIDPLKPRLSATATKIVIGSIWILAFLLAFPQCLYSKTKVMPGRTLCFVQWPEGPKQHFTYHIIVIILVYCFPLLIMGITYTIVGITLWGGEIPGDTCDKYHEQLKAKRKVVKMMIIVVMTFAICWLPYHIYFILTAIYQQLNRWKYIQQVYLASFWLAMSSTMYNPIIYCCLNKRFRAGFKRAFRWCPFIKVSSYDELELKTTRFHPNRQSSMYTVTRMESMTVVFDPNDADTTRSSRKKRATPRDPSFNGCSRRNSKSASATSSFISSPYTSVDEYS
As to the kind of experiment: NK3 receptor binding, [3H]SR142801 displacement, membrane preparations. An outline of the steps:
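Room-temperature, 90-min filtration binding assay using about 2.5 μg recombinant receptor membranes per well; separation on polyethyleneimine-treated glass-fibre (GF/C) filters and liquid scintillation read-out, with 10 μM SB222200 for nonspecific binding.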

Setting [2] is: first value of the cell NK1/NK3, read-out: pKi NK1 (converted).
Where [3] appears, read: second value of the cell NK1/NK3, read-out: pKi NK3 (converted).
The mark [4] stands for this setting: first value of the cell pKi NK1/NK3, human NK1 receptor, [3H]substance P.
The mark [5] stands for this setting: second value of the cell pKi NK1/NK3, hNK3 receptor, [3H]SR142801.

Where two headings read alike, the source gives them in different places.

Chain of human NK1 receptor (P25103 whole entry): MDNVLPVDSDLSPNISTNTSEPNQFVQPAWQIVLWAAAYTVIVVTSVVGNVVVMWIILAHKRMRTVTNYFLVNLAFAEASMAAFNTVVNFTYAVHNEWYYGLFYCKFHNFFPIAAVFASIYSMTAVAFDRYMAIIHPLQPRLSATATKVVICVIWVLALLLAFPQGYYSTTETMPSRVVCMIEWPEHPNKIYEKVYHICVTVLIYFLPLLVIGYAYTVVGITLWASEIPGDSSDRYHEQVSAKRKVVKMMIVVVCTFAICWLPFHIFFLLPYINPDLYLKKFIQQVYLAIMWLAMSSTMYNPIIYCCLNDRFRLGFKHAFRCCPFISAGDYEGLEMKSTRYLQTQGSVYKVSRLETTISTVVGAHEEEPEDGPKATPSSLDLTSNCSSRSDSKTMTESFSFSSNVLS

In the case of `CN(C(=O)C(C)(C)c1cc(C(F)(F)F)cc(C(F)(F)F)c1)c1cnc(N2C[C@H](O)C[C@H]2CO)cc1-c1ccccc1C(N)=O` [Example 219, (2S,4R)-2-[5-{[2-(3,5-Bis-trifluoromethyl-phenyl)-2-methyl-propionyl]-methyl-amino}-2-(4-hydroxy-2-hydroxymethyl-pyrrolidin-1-yl)-pyridin-4-yl]-benzamide], the Ki was 1.45 nM at human NK1 receptor (setting [2]) and 20.4 nM in experiment [1] (setting [3]).

Take `Cc1cc(F)ccc1-c1cc(N2CC(=O)C[C@H]2CO)ncc1N(C)C(=O)C(C)(C)c1cc(C(F)(F)F)cc(C(F)(F)F)c1` [Example 296, (S)-2-(3,5-Bis-trifluoromethyl-phenyl)-N-[4-(4-fluoro-2-methyl-phenyl)-6-(2-hydroxymethyl-4-oxo-pyrrolidin-1-yl)-pyridin-3-yl]-N-methyl-isobutyramide]: the values for the Ki (on human NK1 receptor (setting [2]); in experiment [1] (setting [3])) were 2.51 nM and 1.74 nM, respectively.

Take `CC(=O)NC[C@@H]1CCCN1c1cc(-c2ccc(F)cc2C)c(N(C)C(=O)C(C)(C)c2cc(C(F)(F)F)cc(C(F)(F)F)c2)cn1` [Example 302, (S)-N-[6-[2-(Acetylamino-methyl)-pyrrolidin-1-yl]-4-(4-fluoro-2-methyl-phenyl)-pyridin-3-yl]-2-(3,5-bis-trifluoromethyl-phenyl)-N-methyl-isobutyramide]: the Ki at human NK1 receptor (setting [2]) is 2.51 nM; in experiment [1] (setting [3]), 20.4 nM.

As for `Cc1ccccc1-c1cc(N2CC[C@@H](O)[C@@H](CO)C2)ncc1N(C)C(=O)C(C)(C)c1cc(C(F)(F)F)cc(C(F)(F)F)c1` (racemic) [Example 192, (3RS,4RS)-2-(3,5-Bis-trifluoromethyl-phenyl)-N-(4-hydroxy-3-hydroxymethyl-4′-o-tolyl-3,4,5,6-tetrahydro-2H-[1,2′]bipyridinyl-5′-yl)-N-methyl-isobutyramide], the Ki is 3.02 nM at human NK1 receptor (setting [4]) and 34.7 nM in experiment [1] (setting [5]).

For the compound `CN(C(=O)C(C)(C)c1cc(C(F)(F)F)cc(C(F)(F)F)c1)c1cnc(N(CCO)CCO)cc1-c1ccccc1Cl` [Example 82, N-[6-[Bis-(2-hydroxy-ethyl)-amino]-4-(2-chloro-phenyl)-pyridin-3-yl]-2-(3,5-bis-trifluoromethyl-phenyl)-N-methyl-isobutyramide], the Ki on human NK1 receptor (setting [4]) was 0.933 nM; in experiment [1] (setting [5]), 0.813 nM.

Consider `CN(C(=O)C(C)(C)c1cc(C(F)(F)F)cc(C(F)(F)F)c1)c1cnc(N2C[C@H](O)C[C@H]2CO)cc1-c1ccc(F)cc1CO` [Example 223, (2S,4R)-2-(3,5-Bis-trifluoromethyl-phenyl)-N-[4-(4-fluoro-2-hydroxymethyl-phenyl)-6-(4-hydroxy-2-hydroxymethyl-pyrrolidin-1-yl)-pyridin-3-yl]-N-methyl-isobutyramide], for which the Ki at human NK1 receptor (setting [2]) is 0.708 nM; in experiment [1] (setting [3]), 3.09 nM.

As for `CN(C(=O)C(C)(C)c1cc(C(F)(F)F)cc(C(F)(F)F)c1)c1cnc(N2C[C@@H](O)C[C@H]2CO)cc1-c1ccccc1C#N` [Example 245, (2S,4S)-2-(3,5-Bis-trifluoromethyl-phenyl)-N-[4-(2-cyano-phenyl)-6-(4-hydroxy-2-hydroxymethyl-pyrrolidin-1-yl)-pyridin-3-yl]-N-methyl-isobutyramide], the Ki at human NK1 receptor (setting [2]) is 1.2 nM; in experiment [1] (setting [3]), 1.1 nM.

In the case of `Cc1cc(F)ccc1-c1cc(N2CC[C@H](O)C2)ncc1N(C)C(=O)C(C)(C)c1cc(C(F)(F)F)cc(C(F)(F)F)c1` [Example 109, (S)-2-(3,5-Bis-trifluoromethyl-phenyl)-N-[4-(4-fluoro-2-methyl-phenyl)-6-(3-hydroxy-pyrrolidin-1-yl)-pyridin-3-yl]-N-methyl-isobutyramide], the Ki is 2.04 nM at human NK1 receptor (setting [4]) and 13.5 nM in experiment [1] (setting [5]).

Turning to `Cc1ccccc1-c1cc(N(CCO)CCO)ncc1N(C)C(=O)C(C)(C)c1cc(C(F)(F)F)cc(C(F)(F)F)c1` [Example 83, N-{6-[Bis-(2-hydroxy-ethyl)-amino]-4-o-tolyl-pyridin-3-yl}-2-(3,5-bis-trifluoromethyl-phenyl)-N-methyl-isobutyramide], the Ki was 1.17 nM on human NK1 receptor (setting [4]) and 1.1 nM in experiment [1] (setting [5]).

Consider `CN(C(=O)C(C)(C)c1cc(C(F)(F)F)cc(C(F)(F)F)c1)c1cnc(N2CC[C@H](O)[C@H]2CO)cc1-c1ccccc1Cl` [Example 138, (2R,3S)-2-(3,5-Bis-trifluoromethyl-phenyl)-N-[4-(2-chloro-phenyl)-6-(3-hydroxy-2-hydroxymethyl-pyrrolidin-1-yl)-pyridin-3-yl]-N-methyl-isobutyramide], for which the Ki was 1.66 nM on human NK1 receptor (setting [4]) and 1 nM in experiment [1] (setting [5]).

Regarding `Cc1c(F)cccc1-c1cc(N2CCC[C@H]2CO)ncc1N(C)C(=O)C(C)(C)c1cc(C(F)(F)F)cc(C(F)(F)F)c1` [Example 167, (S)-2-(3,5-Bis-trifluoromethyl-phenyl)-N-[4-(3-fluoro-2-methyl-phenyl)-6-(2-hydroxymethyl-pyrrolidin-1-yl)-pyridin-3-yl]-N-methyl-isobutyramide], the Ki on human NK1 receptor (setting [4]) is 4.47 nM; in experiment [1] (setting [5]) it was 0.977 nM.

Turning to `CN(C(=O)C(C)(C)c1cc(C(F)(F)F)cc(C(F)(F)F)c1)c1cnc(N2CCCC[C@H]2CO)cc1-c1ccccc1Cl` [Example 161, (S)-2-(3,5-Bis-trifluoromethyl-phenyl)-N-[4′-(2-chloro-phenyl)-2-hydroxymethyl-3,4,5,6-tetrahydro-2H-[1,2′]bipyridinyl-5′-yl]-N-methyl-isobutyramide], the Ki on human NK1 receptor (setting [4]) was 11.5 nM; in experiment [1] (setting [5]), 6.76 nM.

Consider `Cc1cc(C)cc(C(C)(C)C(=O)N(C)c2cnc(N3C[C@H](O)C[C@H]3CO)cc2-c2ccccc2Cl)c1` [Example 10, (2S,4R)-N-[4-(2-Chloro-phenyl)-6-(4-hydroxy-2-hydroxymethyl-pyrrolidin-1-yl)-pyridin-3-yl]-2-(3,5-dimethyl-phenyl)-N-methyl-isobutyramide], for which the values for the Ki (at human NK1 receptor (setting [4]); in experiment [1] (setting [5])) were 2.14 nM and 3.63 nM, respectively.

Take `CN(C(=O)C(C)(C)c1cc(C(F)(F)F)cc(C(F)(F)F)c1)c1cnc(N2C[C@H](O)C[C@H]2CO)cc1-c1cc(Cl)ccc1Cl` [Example 226, (2S,4R)-2-(3,5-Bis-trifluoromethyl-phenyl)-N-[4-(2,5-dichloro-phenyl)-6-(4-hydroxy-2-hydroxymethyl-pyrrolidin-1-yl)-pyridin-3-yl]-N-methyl-isobutyramide]: the Ki was 7.76 nM on human NK1 receptor (setting [2]) and 16.6 nM in experiment [1] (setting [3]).

Consider `CN(C(=O)C(C)(C)c1cc(C(F)(F)F)cc(C(F)(F)F)c1)c1cnc(N2CCCC[C@@H]2CO)cc1-c1ccccc1Cl` [Example 160, (R)-2-(3,5-Bis-trifluoromethyl-phenyl)-N-[4′-(2-chloro-phenyl)-2-hydroxymethyl-3,4,5,6-tetrahydro-2H-[1,2′]bipyridinyl-5′-yl]-N-methyl-isobutyramide], for which the Ki was 2.04 nM on human NK1 receptor (setting [4]) and 30.2 nM in experiment [1] (setting [5]).

For the compound `Cc1ccccc1-c1cc(NC[C@@H](O)CO)ncc1N(C)C(=O)C(C)(C)c1cc(C(F)(F)F)cc(C(F)(F)F)c1` [Example 123, (R)-2-(3,5-Bis-trifluoromethyl-phenyl)-N-[6-(2,3-dihydroxy-propylamino)-4-o-tolyl-pyridin-3-yl]-N-methyl-isobutyramide], the Ki at human NK1 receptor (setting [4]) is 2.51 nM; in experiment [1] (setting [5]), 12.6 nM.

These data come from US8404708B2, “Dual NK1/NK3 receptor antagonists” (Hoffmann-La Roche Inc., priority 2004, dated 2013).
